From ChEMBL document CHEMBL1201862, “PubChem BioAssay data set” (2004)
Active and inactive are the calls of the source.

Columns and labels:
[1] = target: T1, Caspase-3 (Homo sapiens, UniProt P42574); assay type: functional;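 further: Dose-response selectivity test against caspase-3 for candidate inhibitors of sentrin-specific proteases (SENPs)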
T1 sequence (P42574 whole entry): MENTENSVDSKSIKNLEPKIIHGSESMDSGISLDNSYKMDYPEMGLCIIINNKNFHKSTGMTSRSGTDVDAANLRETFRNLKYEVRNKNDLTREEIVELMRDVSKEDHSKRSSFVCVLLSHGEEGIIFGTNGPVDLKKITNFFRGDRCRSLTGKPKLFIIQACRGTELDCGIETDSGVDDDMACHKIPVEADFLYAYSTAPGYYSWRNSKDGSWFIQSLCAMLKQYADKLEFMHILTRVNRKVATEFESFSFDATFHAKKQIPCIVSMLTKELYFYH

[2] = target: T2, Sentrin-specific protease 7 (Homo sapiens, UniProt Q9BQF6); assay type: functional;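 further: Luminescence-based dose-response confirmation of ultra-high-throughput screening hits, measuring inhibition of SENP7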
T2 sequence (Q9BQF6 whole entry): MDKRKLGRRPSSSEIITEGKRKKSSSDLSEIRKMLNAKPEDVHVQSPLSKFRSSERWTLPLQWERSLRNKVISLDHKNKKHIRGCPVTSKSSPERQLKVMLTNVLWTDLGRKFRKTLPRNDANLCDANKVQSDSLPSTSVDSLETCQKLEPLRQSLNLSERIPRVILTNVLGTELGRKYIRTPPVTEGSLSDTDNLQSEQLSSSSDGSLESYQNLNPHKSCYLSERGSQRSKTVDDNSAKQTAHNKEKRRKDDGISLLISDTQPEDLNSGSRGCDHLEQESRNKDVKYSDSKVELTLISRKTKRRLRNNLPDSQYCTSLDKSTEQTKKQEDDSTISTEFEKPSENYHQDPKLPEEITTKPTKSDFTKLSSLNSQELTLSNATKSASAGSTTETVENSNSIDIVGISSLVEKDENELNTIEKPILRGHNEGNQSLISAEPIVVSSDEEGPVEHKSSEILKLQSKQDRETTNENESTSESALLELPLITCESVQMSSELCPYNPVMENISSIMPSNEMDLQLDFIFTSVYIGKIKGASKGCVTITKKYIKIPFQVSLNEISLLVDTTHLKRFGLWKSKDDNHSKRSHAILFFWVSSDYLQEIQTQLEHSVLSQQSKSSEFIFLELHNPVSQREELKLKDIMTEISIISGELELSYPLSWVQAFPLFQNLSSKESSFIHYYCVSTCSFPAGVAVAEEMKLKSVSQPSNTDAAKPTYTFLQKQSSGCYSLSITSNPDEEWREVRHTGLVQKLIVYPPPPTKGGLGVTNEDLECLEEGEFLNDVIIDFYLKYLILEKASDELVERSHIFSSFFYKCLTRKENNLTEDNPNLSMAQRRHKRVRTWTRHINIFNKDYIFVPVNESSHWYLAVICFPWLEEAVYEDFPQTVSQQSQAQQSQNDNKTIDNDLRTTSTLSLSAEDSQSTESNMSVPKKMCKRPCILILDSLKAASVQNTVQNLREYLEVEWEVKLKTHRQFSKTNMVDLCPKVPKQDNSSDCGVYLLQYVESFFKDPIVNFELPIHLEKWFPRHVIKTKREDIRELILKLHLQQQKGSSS

[3] = target: T3, Sentrin-specific protease 6 (Homo sapiens, UniProt Q9GZR1); assay type: functional;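 further: Luminescence-based dose-response confirmatory assay of SENP6 inhibition, following up an ultra-high-throughput screen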
T3 sequence (Q9GZR1 whole entry): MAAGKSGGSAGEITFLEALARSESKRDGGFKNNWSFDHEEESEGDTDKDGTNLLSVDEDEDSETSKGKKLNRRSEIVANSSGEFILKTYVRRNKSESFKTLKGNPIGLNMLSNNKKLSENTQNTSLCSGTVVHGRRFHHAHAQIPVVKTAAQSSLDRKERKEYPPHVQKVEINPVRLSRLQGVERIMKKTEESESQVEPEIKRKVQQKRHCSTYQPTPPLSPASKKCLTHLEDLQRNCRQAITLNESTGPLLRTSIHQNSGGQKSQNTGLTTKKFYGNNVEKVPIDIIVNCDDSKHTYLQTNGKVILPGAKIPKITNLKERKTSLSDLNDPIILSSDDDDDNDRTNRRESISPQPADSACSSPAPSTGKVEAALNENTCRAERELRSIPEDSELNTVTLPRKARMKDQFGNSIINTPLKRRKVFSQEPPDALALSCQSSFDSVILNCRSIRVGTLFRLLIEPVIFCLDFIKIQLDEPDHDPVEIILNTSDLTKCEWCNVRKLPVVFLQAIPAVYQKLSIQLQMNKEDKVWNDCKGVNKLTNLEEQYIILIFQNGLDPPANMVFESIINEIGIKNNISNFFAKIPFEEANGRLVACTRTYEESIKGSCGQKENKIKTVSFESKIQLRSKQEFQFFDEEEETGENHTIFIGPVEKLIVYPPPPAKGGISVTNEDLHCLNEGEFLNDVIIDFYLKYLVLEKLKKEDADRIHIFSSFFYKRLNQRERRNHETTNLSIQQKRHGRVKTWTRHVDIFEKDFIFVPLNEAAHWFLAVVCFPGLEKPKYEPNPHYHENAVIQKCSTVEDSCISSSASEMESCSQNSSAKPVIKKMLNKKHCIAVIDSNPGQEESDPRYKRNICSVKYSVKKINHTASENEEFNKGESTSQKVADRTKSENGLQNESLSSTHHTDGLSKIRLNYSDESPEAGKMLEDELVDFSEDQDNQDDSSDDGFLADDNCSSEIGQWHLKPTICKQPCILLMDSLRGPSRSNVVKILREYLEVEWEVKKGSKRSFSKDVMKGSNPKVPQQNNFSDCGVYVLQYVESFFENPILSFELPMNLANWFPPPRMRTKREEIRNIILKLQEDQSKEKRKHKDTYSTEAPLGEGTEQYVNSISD

[4] = target: T4, Sentrin-specific protease 8 (Homo sapiens, UniProt Q96LD8); assay type: functional;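 further: luminescence read-out of SENP8 inhibition, dose-response confirmation following an ultra-high-throughput screen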
T4 sequence (Q96LD8 whole entry): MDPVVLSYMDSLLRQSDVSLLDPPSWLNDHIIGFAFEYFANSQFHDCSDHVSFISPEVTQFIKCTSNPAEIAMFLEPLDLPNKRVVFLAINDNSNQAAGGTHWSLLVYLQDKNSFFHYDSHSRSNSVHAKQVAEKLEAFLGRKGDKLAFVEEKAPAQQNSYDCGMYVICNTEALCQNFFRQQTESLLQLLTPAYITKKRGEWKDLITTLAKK

[5] = target: T5, Oxysterols receptor LXR-beta (Homo sapiens, UniProt P55055); assay type: functional, cell-based;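 further: agonist activity at LXR measured by a cell-based luminescence readout across a dose range, run as a counterscreen for daf-12 agonists; HEK293 cells with Gal4-LXR fusion and GAL4-driven luciferase reporter; potency for activation of Gal4-LXR reporter so compounds are agonists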
T5 sequence (P55055 whole entry): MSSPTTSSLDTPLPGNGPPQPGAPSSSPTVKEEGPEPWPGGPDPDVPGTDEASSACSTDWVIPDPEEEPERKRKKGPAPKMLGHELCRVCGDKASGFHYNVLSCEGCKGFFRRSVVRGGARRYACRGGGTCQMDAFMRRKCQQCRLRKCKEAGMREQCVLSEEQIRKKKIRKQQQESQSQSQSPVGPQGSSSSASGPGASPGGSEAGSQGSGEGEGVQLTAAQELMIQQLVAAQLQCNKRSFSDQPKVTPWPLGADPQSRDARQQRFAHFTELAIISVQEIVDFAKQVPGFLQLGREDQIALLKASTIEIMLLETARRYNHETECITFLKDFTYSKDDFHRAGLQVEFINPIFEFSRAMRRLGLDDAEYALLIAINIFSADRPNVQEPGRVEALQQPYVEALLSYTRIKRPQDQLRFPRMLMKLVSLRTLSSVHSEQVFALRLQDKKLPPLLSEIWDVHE

[6] = growth inhibition of yeast DHODH-expressing 3D7 parasites – SYBR Green, dry powder samples, dose response (AID 1159570); assay type: functional, cell-based;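 further: parasite growth measured after 72 hours of compound exposure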
[7] = toxicity to human HepG2 hepatoma cells – cell-based, plate reader, dry powder samples, cytotoxicity control, dose response (AID 1159569); assay type: functional;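 further: inhibitor potency with signal falling toward the positive control level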
[8] = P. falciparum Dd2 growth inhibitors, dose response, SYBR Green, cherry-picked samples (AID 1159567); assay type: functional, cell-based
[9] = Dd2 malaria parasite growth inhibition potency – SYBR Green, dry powder samples, dose response (AID 1159566); assay type: functional, cell-based;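 further: potency for growth inhibition with lower SYBR green DNA signal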
[10] = growth inhibition of PfATP4-mutant resistant parasites – NITD609-resistant line, SYBR Green, dry powder, dose response (AID 1159571); assay type: functional, cell-based;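 further: parasites synchronized at ring stage by sorbitol before testing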
[11] = viability of PTEN-deleted HCT116 cells – cell-based, HCT116 PTEN knockout, dose response (AID 1047); assay type: functional;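 further: HCT116 colon tumor cells with PTEN knocked out; cells exposed to compound for 60 hours before readout; potency for loss of cell viability measured by luminescence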
[12] = viability of HCT116 lacking mutant beta-catenin – cell-based, human colon tumor, dose response (AID 1045); assay type: functional;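 further: HCT116 colon tumor cells with beta catenin knocked out; cells exposed to compound for 60 hours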
[13] = blockers of HIV-1 envelope-mediated cell-cell fusion – cherry-pick, dose response (AID 652057); assay type: functional, cell-based
[14] = blockers of HIV-1 ZM109 envelope-driven cell-cell fusion – HeLa effector, CEM target cells, luciferase, cherry-pick, dose response (AID 652058); assay type: functional, cell-based;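 further: luciferase signal from HIV-1 Env mediated cell-cell fusion of effector and target cells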
[15] = target: Heat shock protein HSP 90-alpha (Homo sapiens, UniProt P07900); assay type: functional, organism-based
[16] = target: T6, Heat shock factor protein 1 (Mus musculus, UniProt P38532); assay: enhancement of HSF1-driven luciferase signal – cell-based, NIH3T3, luminescence, dose retest, confirmation (AID 435004); assay type: functional;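 further: stress induced by proteasome inhibitor MG132 added 30 min after compound; luciferase reporter driven by HSF1 response element in NIH3T3 cells; actives raise luminescence as potentiators of the MG132 stress response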
T6 sequence (P38532 whole entry): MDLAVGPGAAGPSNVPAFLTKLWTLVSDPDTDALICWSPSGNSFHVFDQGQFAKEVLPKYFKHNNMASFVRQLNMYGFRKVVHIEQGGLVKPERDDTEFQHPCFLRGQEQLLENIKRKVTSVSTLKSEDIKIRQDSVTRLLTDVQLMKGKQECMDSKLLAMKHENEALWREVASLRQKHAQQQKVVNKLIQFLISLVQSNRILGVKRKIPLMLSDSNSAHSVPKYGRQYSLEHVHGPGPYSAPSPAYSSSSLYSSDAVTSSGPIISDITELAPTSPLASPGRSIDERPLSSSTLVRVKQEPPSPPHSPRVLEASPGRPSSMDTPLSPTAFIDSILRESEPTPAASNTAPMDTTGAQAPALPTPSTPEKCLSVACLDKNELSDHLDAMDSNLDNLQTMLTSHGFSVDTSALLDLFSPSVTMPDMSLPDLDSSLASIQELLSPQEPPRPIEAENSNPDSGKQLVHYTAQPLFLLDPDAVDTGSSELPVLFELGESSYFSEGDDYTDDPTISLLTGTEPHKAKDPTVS

[17] = off-target signal loss in HeLa-CEM21 co-culture – HeLa F-luc CTL cells, cherry-picked, counter-screen for HIV-1 Env fusion inhibitor project, dose response (AID 652040); assay type: functional, cell-based;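 further: potency for signal decrease marking cytotoxic or nonspecific inhibition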
[18] = HIV-1 AD8 envelope cell-cell fusion blockers – cherry-pick, dose response (AID 652062); assay type: functional, cell-based;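 further: luciferase signal from cell-cell fusion driven by HIV-1 clade B AD8 Env; potency is for inhibitors of fusion seen as a drop in luminescence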

Structure (SMILES)	IC50 [1]	IC50 [2]	IC50 [3]	IC50 [4]	EC50 [5]	also measured
Cc1ccc(OCc2nc(-c3cccs3)no2)c([N+](=O)[O-])c1	21.4 µM (active)	5.51 µM (active)	11.9 µM (active)	10.2 µM (active)		
COc1ccc(/C=C2/CCc3ccccc3C2=O)cc1OC	32.2 µM (active)	8.88 µM (active)	18 µM (active)	17 µM (active)		
CCCCSc1ncnc2c1ncn2C1CCCCO1 (stereo not drawn)					> 67.4 µM (inactive)	
CNC(=O)c1ccsc1NC(=O)c1ccc2c(c1)CCCC2	28.4 µM (active)	5.37 µM (active)	8.31 µM (active)	17.9 µM (active)		
COc1ccccc1CN1C[C@@H]2N[C@H](C1)[C@@H]2c1ccc(-c2ccncc2)cc1						AC50 [6]: 3.59 µM (active); AC50 [7]: 24.6 µM (active); AC50 [8]: 2.48 µM (active); AC50 [9]: 2.02 µM (active); AC50 [10]: 3.07 µM (active)
O=C(/C=C/c1ccccc1)Nc1nnc(SCC(=O)c2ccc3ccccc3c2)s1						EC50 [11]: 9.17 µM (active); EC50 [12]: 9.72 µM (active)
O=C(NNCc1ccccc1)c1ccccn1					> 67.6 µM (inactive)	
COc1ccc(-n2nc3cc(N)c(Br)cc3n2)cc1	13.3 µM (active)	5.03 µM (active)	8.1 µM (active)	11 µM (active)		
CCCC#Cc1ccc2c(c1)O[C@@H](CN(C)C(=O)C1CCCCC1)[C@H](C)CN([C@H](C)CO)S2(=O)=O						AC50 [13]: 21.7 µM (active); AC50 [14]: 13.3 µM (active)
Cc1cc(C)c(S(=O)(=O)N2CCC(C(=O)NCc3ccc(Cl)cc3Cl)CC2)c(C)c1						AC50 [15]: < 0.195 µM (active)
Cc1ccc(CN2CCN(CC(C)C)C(CCO)C2)s1 (stereo not drawn)					> 67.6 µM (inactive)	EC50 [16]: 98.2 µM (active)
c1cncc(-c2noc(-c3ccc4ccccc4c3)n2)c1					> 67.5 µM (inactive)	
Cc1ccc(-c2noc(CSc3ccccc3)n2)cc1	25.5 µM (active)	6.8 µM (active)	36.4 µM (active)	13.7 µM (active)		
C[C@H]1CN([C@@H](C)CO)C(=O)c2c(c3ccccc3n2C)-c2ccccc2CO[C@H]1CN(C)C(=O)Nc1ccc(-c2ccccc2)cc1						AC50 [6]: 2.71 µM (active); AC50 [7]: > 100 µM (inactive); AC50 [8]: 2.08 µM (active); AC50 [9]: 0.656 µM (active); AC50 [10]: 0.634 µM (active)
CCOC(=O)c1c(C)oc2c1cc(O)c1ccccc12					> 67.5 µM (inactive)	
C#CCNC(=O)C[C@H]1C[C@@]2(C(=O)OC)C(=C[C@H](C(C)C)O[C@@H]2C2CC2)N(CCCCCCCC)C1=O					> 67.5 µM (inactive)	
Cc1cc(C)c(O)c(-c2cc(C(=O)Nc3cccnc3)[nH]n2)c1	31.4 µM (active)	4.68 µM (active)	> 100 µM (inactive)	> 100 µM (inactive)		
COc1cccc(NC(=O)N(C)C[C@@H]2Oc3cc(C#Cc4ccccc4)ccc3S(=O)(=O)N([C@@H](C)CO)C[C@@H]2C)c1						AC50 [6]: 1.14 µM (active); AC50 [7]: > 100 µM (inactive); AC50 [9]: 1.33 µM (active); AC50 [10]: 1.35 µM (active)
C[C@H]1CNC(=O)c2c(C(=O)N3CCN(c4ccccc4)CC3)ncn21						AC50 [13]: 4.6 µM (active); AC50 [14]: 3.25 µM (active); AC50 [17]: 9.62 µM (active); AC50 [18]: 7.04 µM (active)
CC(=O)c1sc(Nc2nc3ccc(F)cc3s2)nc1C	18.8 µM (active)	5.6 µM (active)	11.2 µM (active)	16 µM (active)		
